Where “and” joins values, the source holds several entries; their conditions need not be identical. Identical values can stand only once. Like-named read-outs stand apart in the source and are kept apart here.
How the values were obtained:
[1] = Absorption spectra obtained in toluene at room temperature; format: physicochemical; settings: for redshift of the Qy band: Example 1, versus benchmark chlorin lacking the 13-substituent (Zn-11 or 11), toluene; for B/Qy intensity ratio / Log ε (M^−1cm^−1) (Qy band) / λmax (nm), B / λmax (nm), Qy: Table 1, in toluene at room temperature; for Qy band: figure legends (FIG. 1, 2, 4, 5), toluene at room temperature, normalized at the B bands
Description: (§1) Absorption Spectra. The spectral properties of interest in the chlorins include the position of the long-wavelength Qy transition, the intensity of the Qy transition, and the fluorescence quantum yield of the chlorin. The intensity of the Qy transition can be assessed by the measured molar absorption coefficient; however, comparisons of such values are somewhat unreliable given the experimental variability encountered upon handling small quantities of materials. A better comparison is achieved by examination of the ratio of the intensities of the B and Qy bands for a given compound (B/Qy ratio), which is determined simply by absorption spectroscopy without requiring determination of the molar absorption coefficient. For a wide variety of applications, bathochromic and hyperchromic shifts of the Qy band are desired (i.e., shifted to longer wavelength and intensified), thereby affording strong absorption in the deep-red region.
General. ^1H NMR (400 MHz) and ^13C NMR (75 MHz) spectra were collected at room temperature in CDCl3. Absorption spectra were obtained in toluene at room temperature. Chlorins were analyzed by laser desorption mass spectrometry (LD-MS) in the absence of a matrix. Fast atom bombardment mass spectrometry (FAB-MS) data are reported for the molecule ion or protonated molecule ion. Melting points are uncorrected. All commercially available materials were used as received. All palladium-coupling reactions were carried out using standard Schlenk-line techniques.
as §1, with “B. Absorption” for “Absorption”, “Spectroscopy.” for “Spectra.”, “increased” for “intensified), thereby affording strong absorption”, “intensity).” for “the deep-red region.”
General. ^1H NMR (400 MHz) and ^13C NMR (75 MHz) spectra were collected at room temperature in CDCl3 unless noted otherwise. Absorption spectra were obtained in toluene at room temperature. Chlorins were analyzed by laser desorption mass spectrometry (LD-MS) in the absence of a matrix. Metalation of free base chlorins was monitored by fluorescence spectroscopy. Melting points are uncorrected. All commercially available materials were used as received.

[2] = Fluorescence spectra and fluorescence quantum yields in toluene at room temperature; format: physicochemical; settings: for fluorescence quantum yield (Φf): standard Zn-11 (Φf=0.065)
Method: Fluorescence Spectroscopy. The fluorescence spectra and fluorescence quantum yields reported herein were collected in toluene at room temperature. Measurements of fluorescence quantum yield (Φf) were carried out using chlorin Zn-11 (Φf=0.065) as a standard (Strachan, J.-P. et al., J. Org. Chem. 2000, 65, 3160-3172).

[3] = comparison values, Strachan et al.; cited from earlier work

For `CC(=O)c1cc2[n]3c1=CC1=NC(=Cc4ccc([n]4[Zn]3)C(c3ccc(C)cc3)=C3C=CC(=N3)C=2c2c(C)cc(C)cc2C)C(C)(C)C1` [Zn-8, Zn(II)-13-Acetyl-17,18-dihydro-10-mesityl-18,18-dimethyl-5-p-tolylporphyrin], the “redshift of the Qy band” value [1] was 27 nm, the B/Qy intensity ratio [1] was 2.9 and the “Log ε (M^−1cm^−1) (Qy band)” value [1] was 4.75 M^−1cm^−1. The “λmax (nm), B” value [1] was 424 nm, the “λmax (nm), Qy” value [1] was 635 nm and the Qy band [1] was 632 nm. The “strong / dominant Qy(0,0) fluorescence band” value [2] was “around 641 nm”, the “weak emission feature / broad weak band” value [2] was 670-720 nm and the “fluorescence quantum yield (Φf)” value [2] was 0.24.
In the case of `CC(=O)c1cc2[nH]c1cc1nc(cc3ccc([nH]3)c(-c3ccc(C)cc3)c3nc(c2-c2c(C)cc(C)cc2C)C=C3)C(C)(C)C1` [compound 8, 13-Acetyl-17,18-dihydro-10-mesityl-18,18-dimethyl-5-p-tolylporphyrin], the B/Qy intensity ratio [1] is reported as 2.3, the “Log ε (M^−1cm^−1) (Qy band)” value [1] is reported as 4.67 M^−1cm^−1 and the “λmax (nm), B” value [1] is reported as 422 nm. The “λmax (nm), Qy” value [1] was 661 nm, the “strong / dominant Qy(0,0) fluorescence band” value [2] was “approximately 668 nm” and the “weak emission feature / broad weak band” value [2] was ~711 nm and ~744 nm. The “fluorescence quantum yield (Φf)” value [2] was 0.23.
For `Cc1ccc(-c2c3nc(c(-c4c(C)cc(C)cc4C)c4cc5c([nH]4)c(c4nc(cc6ccc2[nH]6)C(C)(C)C4)CC5=O)C=C3)cc1` [compound 10, 18,18-Dimethyl-10-mesityl-13^1-oxo-5-p-tolylphorbine], the “redshift of the Qy band” value [1] was 19 nm, the B/Qy intensity ratio [1] was 2.5 and the “λmax (nm), B” value [1] was 417 nm. The “λmax (nm), Qy” value [1] was 660 nm, the Qy band [1] was 660 nm and the “fluorescence quantum yield (Φf)” value [3] was 0.29.

From patent US8207329B2, “Synthesis of chlorins and phorbines with enhanced red spectral features” (North Carolina State University, priority 2005, dated 2012)
